Measurements taken from patent publication US20210153484A1, “Humanized Mouse Model” (The Wistar lnstitute, priority 2018, published 2021).
Entries after “also recorded” stand apart in the source; their conditions may differ.

Assays:
[1] = test system: human γ/δ+ T-cells; experiment: Human T γ/δ cells in reconstituted Hu-mice treated with HMBPP (IHC); type: in vivo, mouse; conditions: HMBPP 50 mg/kg i.p.
Description: FIGS. 6A-6C illustrate the human immune subpopulation in spleen, thymus, lymph node, small intestines (SI) and lungs of humanized mice. […] Mouse SI and lungs show presence of IgA+ and IgE+ cells (left and right panels) as determined by mouse anti-human IgA or […] antibodies. Minimal staining of mouse cells was observed when the tissue sections were stained with anti-mouse specific antibodies (See FIG. 23). […] Mouse spleen (left panels; a), thymus (middle panels) and mesenteric lymph nodes (right panels) show presence of CD4+ (top panels) and CD8+ (bottom panels) T-cells as determined by IHC staining using anti-human CD4 or CD8 antibodies. […] Presence of T γ/δ cells were determined in a IHC staining by using mouse anti-human TcR γ/δ antibody.
Besides the presence of human CD45+ cells, the presence of monocytes/myeloid lineage cells HLA DR+, CD33+, CD15+, CD11b+ and CD14+ was observed (FIG. 5D). […] B-cells are fully functional, as antigen specific IgG were detected in circulating blood (see anti-hTERT response below), and IgA and IgE with unknown specificity in the mucosal layers of small intestines and the lungs (FIG. 6B, FIG. 23). Human CD4+ and CD8+ subpopulations of T-cells were detected in spleen, thymus and mesenteric lymph node tissues (FIG. 6C). […]

[2] = test system: WM3629 [HLA-A3] melanoma cells; experiment: Anti-PD1 therapy in Hu-mice melanoma model, WM3629 tumors; type: in vivo, mouse; conditions: anti-PD1 10 mg/kg i.p. weekly
Protocol: (§1) FIGS. 8A-8H illustrate functional characterization of human immune cells in humanized mice. FIGS. 8A-8C show T- and B-cell response to hTERT vaccine. FIG. 8A is a schema for hTERT DNA vaccination. Hu-mice received a total of 3 injections of hTERT vaccine (hTERT DNA [50 μg; i.m] followed by electroporation) every 2 weeks and the mice were sacrificed 1 week after the last injection to determine T- and B-cell responses. […] Spleen cells from Hu-mice (n=3) were stimulated overnight (18 h) with pools of overlapping hTERT peptides (15 mer; 2 μg/ml/peptide) spanning the entire hTERT protein. Human IFNγ was detected in ELISPOT assay using a kit. […] Endpoint binding titer was determined in sera of hTERT vaccinated mice after 3 immunizations and compared to sera from NSG mice as controls. […] Tumor growth measurements are recorded using digital caliper by an independent researcher. […]
(§2) All animal experiments were performed according to protocols approved by the Wistar Institute's Institutional Animal Care and User Committee (IACUC). […] Six to 8 weeks (>50 days) later, presence of human immune cells was monitored by multi-color flow cytometry using 18 color BD LSR II Analyzer (BD Biosciences; Somasundaram et al. Nat. Commun. 2017, 8(1):607). […] Tumors were measured twice a week using digital calipers.

[3] = test system: A375 [HLA-A2] melanoma cells; experiment: Anti-PD1 therapy in Hu-mice melanoma model, A375 tumors; type: in vivo, mouse; conditions: anti-PD1 10 mg/kg i.p. weekly
Protocol: as §1, §2

[4] = test system: 451LU melanoma; experiment: Anti-PD1 therapy in Hu-mice melanoma model, aggressively growing 451LU tumors; type: in vivo, mouse
Protocol: All animal experiments were performed according to protocols approved by the Wistar Institute's Institutional Animal Care and User Committee (IACUC). NOD/LtSscidIL2Rγ^null (NSG) mice were inbred at The Wistar Institute under license from the Jackson Laboratory. For humanization, fetal liver and thymus were obtained from the same donor (18-22 weeks of gestation). NSG mice (6 to 8 weeks) received thymus graft (1 mm^3) in sub-renal capsule 24 h post myeloablation using Busulfan (30 mg/kg, i.p.; Sigma-Aldrich [B2635], St. Louis, Mo.). This is immediately followed by injection of autologous liver-derived CD34^+ hematopoietic stem cells (10^5 cells/mouse, i.v., FIG. 5A) that was magnetically sorted by microbeads conjugated with anti-human CD34 (Miltenyi Biotec., [130-046-703], Auburn, Calif.; Chen et al. Bio Protoc. (2013) 3(23)). Six to 8 weeks (>50 days) later, presence of human immune cells was monitored by multi-color flow cytometry using 18 color BD LSR II Analyzer (BD Biosciences; Somasundaram et al. Nat. Commun. 2017, 8(1):607). To accelerate human immune cell reconstitution mice received AAV8 encoding human IL-3, IL-7 and GM-CSF (FIG. 5; FIG. 20A; 10^8; iv; Wu, . . . Ertl., et al 2013). […] Tumors were measured twice a week using digital calipers.

[5] = test system: tumor-infiltrating immune cells; experiment: IHC, MassCyTOF and RNA-seq/CIBERSORT analysis of tumors from anti-PD1 treated Hu-mice; type: in vivo, mouse
Protocol: (§3) IHC staining was performed as previously described (Somasundaram et al 2017). Briefly, tissue sections were subjected to antigen retrieval by incubation with Target Retrieval Solution (Citrate [S1699] or Tris-EDTA buffers [S2367]; Agilent-DAKO, Santa Clara, Calif.) kit at 95° C. for 20 min and subsequently incubated with primary antibodies with optimum dilutions (FOXP3 [1:10]; CD4, HLA class I, HMB45 and mast cell tryptase [all at 1:100 dilution]; CD68, IgA and IgE [all at 1:400 dilution] and CD8 [1:500 dilution]. For detection of primary antibodies slides were incubated with anti-mouse, anti-rat or anti-rabbit antibodies at 1:1000 dilution and visualized by DAB (SK-4100) or AEC (SK-4200; both Vector Laboratories, Burlingame, Calif.) chromogens.
CyTOF staining was performed as previously described (Wang et al 2019). Briefly, carrier-free antibodies were commercially obtained and tagged with lanthanide metals using the Maxpar X8 metal conjugation kit from Fluidigm^R (201300, Ontario, Canada). Antigen retrieval was performed on deparaffinized tissue sections at 95° C. for 30 min in Tris/EDTA buffer, slides were cooled, blocked with 3% BSA-PBS solution and incubated with cocktail of antibodies (100 ul) overnight at 4° C. Next day slides were washed 3× with PBS and labeled with 1:400 dilution of Intercalator-Ir (Fluidigm 201192B) in PBS for 30 min at RT. Slides were washed with water (3×) and air dried for 30 mins before image mass cytometry acquisition using Fluidigm Hyperion Imaging System.
RNAseq was done using ScriptSeq RNA-seq library preparation kit (Illumina, [BHMR1205], San Diego, Calif.). Quality control of RNA and DNA library was done using the Tapestation 4200 and Bioanalyzer 2100 system (Agilent, Santa Clara, Calif.). Library quantification was done using the Kapa Library Quantification qPCR kit (Roche, [KK4854], Pleasanton, Calif.) and subjected to a 75 bp paired-end sequencing run on Illumina's NExtSeq 500 high output kit following the manufacturer's protocol. RNA-seq analysis was performed using RSEM v1.2.12 software and downstream expression analysis was done using Differential2 (Shuai Wu et al. Nature Commun. 2018; 9: 4166). RNA-seq data was used to enumerate tumor-infiltrating leukocytes using CIBERSORT, an analytical tool available online (cibersort.stanford.edu) (Chen et al. Methods Mol. Biol. 2018; 1711:243-259).
In order to understand the phenomenon of mixed therapy responses to anti-PD1 treatment, IHC, multiplexed imaging using MassCyTOF and RNA-seq was performed on tumors obtained from anti-PD1 treated Hu-mice and they were compared with control Ig treated mice. […]

[6] = test system: mast cells in tumor; experiment: Mast cell immunostaining of melanoma patients' tumors after anti-PD1 therapy; type: in vivo, human; conditions: compared to untreated individuals
Protocol: as §3

[7] = compared to control IgG or non-reconstituted NSG mice treated with anti-PD1, listed as Anti-PD1 antibody
[8] = compared to control IgG or non-reconstituted NSG mice treated with anti-PD1, listed as anti-PD1 antibody

| Compound | human T γ/δ cells in tissues [1] | tumor growth of WM3629 melanoma [2, 7] | tumor growth of WM3629 melanoma [2, 8] | tumor growth of A375 melanoma [3, 7] | tumor growth of A375 melanoma [3, 8] | immune infiltrating cells by IHC staining ([4]; 451Lu tumors in Hu-mice after anti-PD1) | tumor growth of 451LU melanoma ([4]; Hu-mice, aggressively growing metastatic melanoma) | immune (leukocyte) infiltration in tumor sections ([5]; H&E/IHC, compared to control IgG treated / untreated Hu-mice) | transcription of chemokine genes (CCL2, CCL3, CCL4, CCLS, CXCL9, CXCL10 and CXCL11) ([5]; RNA-seq of tumors after anti-PD1 treatment) | mast cell numbers in tumors (mast cell tryptase IHC) ([5]; compared to control Ig treated mice) | tumor resident mast cells / mast related genes by CIBERSORT of RNA-seq data ([5]; tumors from Hu-mice with and without anti-PD1) | mast cells in melanoma patients' tumor [6] |
| --- | --- | --- | --- | --- | --- | --- | --- | --- | --- | --- | --- | --- |
| C/C(=C\COP(=O)(O)OP(=O)(O)O)CO [HMBPP, hydroxy-2-methyl-2-butenyl 4-pyrophosphate] | further expanded |  |  |  |  |  |  |  |  |  |  |  |
| anti-PD1: anti-PD-1 antibody (Keytruda, Merck, Rahway, N.J.) |  | restrict tumor growth | significantly restricted tumor growth | restrict tumor growth | significantly restricted tumor growth | No immune infiltrating cells were detected | negligible effect on growth; also recorded: unable to restrict tumor growth | Higher levels of immune infiltration; also recorded: dense leukocyte infiltration | higher transcription | increased numbers | higher presence of tumor resident mast cells; also recorded: higher expression of mast related genes | increased presence of mast cells |
